The text below walks through data of PubChem BioAssay (NCI).

Test in all cases: NCI anticancer screen, dose series, 48 h
Assay [1] deals with OVCAR-5 ovarian.
Assay [2] concerns HCT-116 colon.
In assay [3] the test system is OVCAR-4 ovarian.
Assay [4] deals with UACC-257 melanoma.
For assay [5], the system named is DU-145 prostate.
Assay [6] concerns OVCAR-8 ovarian.
The test system of assay [7] is HOP-62 NSCLC.
Assay [8] concerns IGROV1 ovarian.
Assay [9] deals with OVCAR-3 ovarian.
Assay [10] has as its system HS 578T breast.
The subject of assay [11] is SNB-75 CNS.
The test system of assay [12] is LOX IMVI melanoma.
The test system of assay [13] is MOLT-4 leukemia.
Assay [14] has as its system UO-31 renal.
Assay [15] deals with MALME-3M melanoma.
The test system of assay [16] is T-47D breast.
For assay [17], the system named is HL-60(TB) leukemia.

SMILES strings stand for the structures.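 Briefly, cells in 96-well plates were exposed to five compound concentrations for 48 h, and endpoints were estimated by linear interpolation. Definition used: TGI = concentration required for complete inhibition of growth.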

In the case of `COc1c(C)c(C/C=C(\C)CCCCO)c(OC)c(OC)c1OC`, the TGI in assay [1], in [2], in assay [3], in [4], in assay [5] and in assay [6] was greater than 100 µM throughout. For the same compound, the TGI is greater than 100 µM in assay [7]; greater than 100 µM in assay [8]; greater than 100 µM in [9]; greater than 100 µM in [10]; greater than 100 µM in assay [11]; 61.2 µM in [12]. Further, the TGI in [13] and in assay [14] was greater than 100 µM throughout.
Regarding `COc1ccc(N2C(=O)c3cccnc3S2(=O)=O)cc1`, the TGI in assay [15], in assay [16], in assay [1], in [2], in assay [17] and in [3] was greater than 100 µM in each case. The TGI in assay [4], in assay [5], in [6], in assay [7], in assay [8] and in assay [9] was greater than 100 µM throughout. The TGI in assay [11], in assay [13] and in assay [14] was greater than 100 µM each time.
Regarding `Cc1ccc(C(CC(=O)C(C)(C)CN2CCCCC2)SCCS(=O)(=O)O)cc1` (stereo not drawn), the TGI in [15] is 73.2 µM; in assay [1], greater than 100 µM; in assay [2] it was 59.2 µM; in assay [3], 84.3 µM; in [5] it was greater than 100 µM; in assay [6] it was 65.4 µM. Besides, the TGI in assay [7] was 78.8 µM; in assay [8], greater than 100 µM; in assay [9], 49.5 µM; in assay [10], 68.9 µM; in assay [11] it was 96.4 µM; in assay [13], 48.7 µM. The compound further returned a TGI in [14] of 65.3 µM.
For the compound `CN1C(=O)c2c(c3c4ccccc4n(C4OC(CO)C(O)C(O)C4O)c3c3[nH]c4ccccc4c23)C1=O` (stereo not drawn), the TGI in assay [15] was found to be 1.44 µM; in assay [1], 6.67 µM; in assay [2], 2.88 µM; in [3], 6.36 µM; in assay [4], 7.36 µM; in assay [5], 9.66 µM. Also, the TGI amounted to 4.19 µM in assay [6]; 9.51 µM in assay [7]; 4.1 µM in [8]; 5.37 µM in [9]; 21.6 µM in [10]; 15.9 µM in assay [11]. In addition, the TGI worked out at 5.49 µM in [12], 3.57 µM in assay [13] and 6.6 µM in [14].
With `Nc1ccc2cc3[nH]c4cc(N)ccc4c3nc2c1`, the TGI was found to be 4.33 µM in assay [16]; 1.83 µM in [1]; 0.456 µM in assay [2]; 3.02 µM in [3]; 0.761 µM in [4]; 2.4 µM in assay [5]. Moreover, the TGI was 1.69 µM in assay [6]; 1.13 µM in assay [7]; 2.69 µM in assay [9]; 2.57 µM in assay [10]; 1.33 µM in [11]; 0.911 µM in assay [12]. The TGI in [13] came out at 6.76 µM; in assay [14], 0.659 µM.
`O=C1Oc2ccccc2C(=O)/C1=C/N1C(=O)N/C(=C\c2cccc(O)c2)C1=O`: the TGI in assay [16], in assay [1], in [2], in assay [17], in assay [3] and in [4] was greater than 100 µM in each case. Further, the TGI in assay [5], in assay [6], in assay [7], in [8], in assay [9] and in assay [11] was greater than 100 µM throughout. Also, the TGI in [12], in [13] and in [14] was greater than 100 µM each time.
For the compound `CC(C)c1c(O[Si](C(C)C)(C(C)C)C(C)C)c2c3c(ccc4c3c1OC4(C)C)C(C)CC2` (stereo not drawn), the TGI in assay [15], in assay [1], in assay [2], in assay [17], in [3] and in [4] was greater than 100 µM in each case. Moreover, the TGI in assay [5], in assay [6], in assay [7], in assay [8], in assay [9] and in [10] was greater than 100 µM in each case. Also, the TGI in assay [11], in assay [12], in assay [13] and in assay [14] was greater than 100 µM throughout.
Regarding `O=c1cc(-c2ccccc2)oc2ccc(-c3ccc4oc(-c5ccccc5)cc(=O)c4c3)cc12`, the TGI in assay [15] was 34.7 µM; in assay [1], greater than 100 µM; in assay [2] it was 31.2 µM; in [17], 27.8 µM; in assay [3] it was 38.9 µM; in [6], 35.2 µM. Further, the TGI in [7] worked out at 36.5 µM; in assay [8], 84.5 µM; in assay [10], 37.4 µM; in assay [12], 33.2 µM; in [13] it was 27.5 µM; in [14], 21.7 µM.
On to `O=C1/C(=C/c2ccccc2)N=C(c2ccccc2)N1C1Nc2cc3c(cc2S1)NC(N1C(=O)/C(=C/c2ccccc2)N=C1c1ccccc1)S3` (stereo not drawn), for which the TGI in assay [16], in assay [1], in assay [2], in assay [17], in [3] and in [4] was greater than 100 µM each time. Further, the TGI in assay [5], in assay [6], in assay [7], in assay [8], in [9] and in assay [12] was greater than 100 µM in each case. In addition, the TGI in assay [13] is 88.2 µM; in assay [14] it was greater than 100 µM.
